Laboratory results taken from US11793782B2, “Therapeutic agents for neurodegenerative diseases” (priority 2017, dated 2023).

System: ataxia telangiectasia patients
Test: Case studies, ataxia telangiectasia patients (SARA, SCAFI, video-oculography)
Format: in vivo, human
From the text: For example, to evaluate overall neurological status, mDRS, a four-domain scale (ambulation, manipulation, language and swallowing), may be applied. Cerebellar function may be evaluated using SARA, an eight-item clinical rating scale (gait, stance, sitting, speech, fine motor function and taxis; range 0-40, where 0 is the best neurological status and 40 the worst), and SCAFI, comprising the 8-m-Walking-Time (8 MW; performed by having patients walking twice as quickly as possible from one line to another excluding turning), 9-Hole-Peg-Test (9HPT) and the number of “PATA” repetitions over 10 s. Subjective impairment and quality of life may be evaluated using the EQ-5D-5L questionnaire and VAS. To assess ocular motor function, 3-dimensional videooculography (EyeSeeCam) may be used to measure the peak velocity of saccades, gain of smooth pursuit, peak slow phase velocity of gaze-evoked nystagmus (gaze-holding function), peak slow phase velocity of optokinetic nystagmus, and gain of horizontal vestibulo-ocular reflex. To evaluate the cognitive state, WAIS-R or WISC-IV, and MoCA, assessing different cognitive domains, including attention and concentration, executive functions, memory, language, visuoconstructional skills, conceptual thinking, calculations, and orientation with a maximum of 30 points and a cut-off score of 26, may be used. The skilled person will know how to perform these and other such tests.
After one month of treatment, the patient was re-evaluated. […] Examination indicated a Scale for Assessment and Rating of Ataxia (SARA) score of 15.5/40. Results from the patient's Spinocerebellar Ataxia Functional Index (SCAFI) analysis were: • Mean 8-meters Walking Test (8 MW): 18.5 s • MW 9-Hole Pegboard Test Dominant (9HPTD) (right): 77.9 s • MW 9-Hole Pegboard Test Non-Dominant (9HPTND): 101.3 s • MW PATA Word Test: 13 • Visual analog scale (as evaluated by the patient): 85
After one month of treatment, the patient was re-evaluated. […] Examination indicated a Scale for Assessment and Rating of Ataxia (SARA) score of 23.5/40.
After slightly over 7 months of treatment, the patient was re-evaluated. […] Examination indicated a Scale for Assessment and Rating of Ataxia (SARA) score of 21.5/40.
After slightly over 1 month of treatment, the patient was re-evaluated. […] The patient also reported that drinking was easier and no longer needed a straw. […] Examination indicated a Scale for Assessment and Rating of Ataxia (SARA) score of 18.5/40.
After about 1 month of treatment, the patient was re-evaluated. […] On medication, they were able to walk with only holding the caregiver's hand.
The patient was evaluated after one month and six months of treatment, respectively. […] The patient, however, was suffering from anxiety, which would be expected to negatively influence the response.

[1] = ataxia telangiectasia Patient 1, after one month
[2] = ataxia telangiectasia Patient 1, after one month, Center
[3] = ataxia telangiectasia Patient 1, after one month, Down
[4] = ataxia telangiectasia Patient 1, after one month, Left
[5] = ataxia telangiectasia Patient 1, after one month, Right
[6] = ataxia telangiectasia Patient 1, after one month, Up
[7] = ataxia telangiectasia Patient 2, after one month
[8] = ataxia telangiectasia Patient 2, after one month, Center
[9] = ataxia telangiectasia Patient 2, after one month, Down
[10] = ataxia telangiectasia Patient 2, after one month, Left
[11] = ataxia telangiectasia Patient 2, after one month, Right
[12] = ataxia telangiectasia Patient 2, after one month, Up
[13] = ataxia telangiectasia Patient 3, after slightly over 7 months
[14] = ataxia telangiectasia Patient 3, after slightly over 7 months, Center
[15] = ataxia telangiectasia Patient 3, after slightly over 7 months, Down
[16] = ataxia telangiectasia Patient 3, after slightly over 7 months, Left
[17] = ataxia telangiectasia Patient 3, after slightly over 7 months, Right
[18] = ataxia telangiectasia Patient 4, after slightly over 1 month

CC(=O)NC(CC(C)C)C(=O)O (racemic) [acetyl-DL-leucine]
Caregivers' report [1]: improvement of speech and gait | Video-oculography (summary) [1]: significant improvement of fixation stability and decrease of intensity of downbeat-nystagmus | Slow phase velocity of the gaze-holding nystagmus, Horizontal [2]: 0.4 | Slow phase velocity of the gaze-holding nystagmus, Vertical [2]: 4.77 | Slow phase velocity of the gaze-holding nystagmus, Horizontal [3]: −0.44 | Slow phase velocity of the gaze-holding nystagmus, Vertical [3]: 5.29 | Slow phase velocity of the gaze-holding nystagmus, Horizontal [4]: 8.2 | Slow phase velocity of the gaze-holding nystagmus, Vertical [4]: 8.85 | Slow phase velocity of the gaze-holding nystagmus, Horizontal [5]: −0.95 | Slow phase velocity of the gaze-holding nystagmus, Vertical [5]: 4.83 | Slow phase velocity of the gaze-holding nystagmus, Horizontal [6]: 0.72 | Slow phase velocity of the gaze-holding nystagmus, Vertical [6]: 2.67 | PATA Word Test (ataxia telangiectasia Patient 1, after one month, before 12.5): 13 | Mean 8-meters Walking Test (8 MW) (ataxia telangiectasia Patient 1, after one month, before 21.8 s): 18.5 s | 9-Hole Pegboard Test Dominant (9HPTD) (right) (ataxia telangiectasia Patient 1, after one month, before 90.2 s): 77.9 s | Visual analog scale (as evaluated by the patient) (ataxia telangiectasia Patient 1, after one month, before 99): 85 | 9-Hole Pegboard Test Non-Dominant (9HPTND) (ataxia telangiectasia Patient 1, after one month, before 125.8 s): 101.3 s | Caregivers' report [7]: improvement of fine motor function, hand tremor, and speech | Mean 8-meters Walking Test (8 MW) [7]: not able to perform without support | Video-oculography (summary) [7]: improvement of fixation stability and significant improvement of downbeat-nystagmus intensity | Slow phase velocity of the gaze-holding nystagmus, Horizontal [8]: −1.45 | Slow phase velocity of the gaze-holding nystagmus, Vertical [8]: 5.6 | Slow phase velocity of the gaze-holding nystagmus, Horizontal [9]: −2.5 | Slow phase velocity of the gaze-holding nystagmus, Vertical [9]: 4.69 | Slow phase velocity of the gaze-holding nystagmus, Horizontal [10]: 3.58 | Slow phase velocity of the gaze-holding nystagmus, Vertical [10]: 7 | Slow phase velocity of the gaze-holding nystagmus, Horizontal [11]: −3.45 | Slow phase velocity of the gaze-holding nystagmus, Vertical [11]: 6.56 | Slow phase velocity of the gaze-holding nystagmus, Horizontal [12]: −0.51 | Slow phase velocity of the gaze-holding nystagmus, Vertical [12]: 3.15 | PATA Word Test (ataxia telangiectasia Patient 2, after one month, before 13.5): 14 | Visual analog scale (as evaluated by the patient) (ataxia telangiectasia Patient 2, after one month, before 45): 80 | 9-Hole Pegboard Test Non-Dominant (9HPTND) (ataxia telangiectasia Patient 2, after one month, before 299.2 s): 300 s | 9-Hole Pegboard Test Dominant (9HPTD) (right) (ataxia telangiectasia Patient 2, after one month, before 300 s): 300 s | Caregivers' and patient's report [13]: general improvement of well-being | Mean 8-meters Walking Test (8 MW) [13]: not able to perform | Video-oculography (summary) [13]: significant improvement of fixation stability and decrease of intensity of gaze-holding nystagmus at all positions | Slow phase velocity of the gaze-holding nystagmus, Horizontal [14]: −0.1 °/s | Slow phase velocity of the gaze-holding nystagmus, Vertical [14]: 0.4 °/s | Slow phase velocity of the gaze-holding nystagmus, Horizontal [15]: −0.6 °/s | Slow phase velocity of the gaze-holding nystagmus, Vertical [15]: 1.2 °/s | Slow phase velocity of the gaze-holding nystagmus, Horizontal [16]: 1.7 °/s | Slow phase velocity of the gaze-holding nystagmus, Vertical [16]: 0.1 °/s | Slow phase velocity of the gaze-holding nystagmus, Horizontal [17]: −4.2 °/s | Slow phase velocity of the gaze-holding nystagmus, Vertical [17]: 1.7 °/s | PATA Word Test (ataxia telangiectasia Patient 3, after slightly over 7 months, before 14): 10 | Visual analog scale (as evaluated by the patient) (ataxia telangiectasia Patient 3, after slightly over 7 months, before 80): 80 | 9-Hole Pegboard Test Dominant (9HPTD) (right) (ataxia telangiectasia Patient 3, after slightly over 7 months, before 150 s): 124.5 s | 9-Hole Pegboard Test Non-Dominant (9HPTND) (ataxia telangiectasia Patient 3, after slightly over 7 months, before 161.6 s): 147.5 s | Mean 8-meters Walking Test (8 MW) [18]: not able to perform | Patient's and parent's report [18]: improvement in handwriting | Video-oculography (summary) [18]: general improvement of fixation stability and decrease of intensity of spontaneous and gaze-holding nystagmus at all positions | Slow phase velocity of the gaze-holding nystagmus, Horizontal (ataxia telangiectasia Patient 4, after slightly over 1 month, Center): −0.2 °/s
